Consider five compounds from publication PMC12642047, “Marine-derived Acremonium strain prioritization using untargeted metabolomics approach for the identification of cytotoxic cyclic depsipeptides” (BMC Biotechnology, 2025).

Structures are written as SMILES. Like-named read-outs stand apart in the source and are kept apart here. *1 amine or outer side, *2 acyl side, *3 side chain or, on linkers, in order; H or OH if unused. Where a SMILES comes first, the peptide text is derived from it. [ ]: non-standard residue; d: D form. ξ: configuration not given here. Pentanoyl(2-O,4-OH,5-Cl) = O=C(O)C(O)CC(O)CCl; NMeI = CC[CH](C)[CH](NC)C(=O)O; X1 = CC1CCN([*:1])C1C(=O)[*:2]; ξLac(3-iPr) = CC(C)CC(O)C(=O)O; NMeA = CN[CH](C)C(=O)O; βAla = NCCC(=O)O A value given as a limit tells only on which side of the number the result lay.

In one assay the test system is A2058 (human melanoma). The assay can be described thus: MTS cytotoxicity assay (CellTiter 96 AQueous One), compounds, 72 h. To be noted: A2058 cells. The format is cell-based. The method, then: (§1) Compounds 1 − 5 were tested for their cytotoxic effects against several cancer cell lines, including MOLM-13 (acute myeloid leukemia), MV-4-11 (biphenotypic B myelomonocytic leukemia), THP-1 (acute monocytic leukemia), A2058 (human melanoma), MCF7 (human breast adenocarcinoma), and non-cancerous MRC-5 (normal lung fibroblast) using an MTS based CellTiter 96® AQueous One Solution Assay. In short, the cells were cultured in appropriate media supplemented with 10% fetal bovine serum (FBS): MOLM-13, MV-4-11 cells in RPMI medium, THP-1 cells in RPMI medium with ultra-low endotoxin FBS, MCF7 and MRC-5 in MEM Eagle medium along with other amino acid supplements, and A2058 cells in DMEM medium. After harvesting, they were seeded into 96-well plates. The cells were then treated with the test compounds at various concentrations and incubated for 72 h. Following the incubation period, an MTS assay was conducted, and the absorbance of the solution was measured using a microplate reader spectrophotometer (Tecan spark plate reader) at a wavelength of 490 nm. The half-maximum inhibitory concentration (IC50) values were calculated using the drc_3.0–1 package in R (Supplementary page S60-S61). DMSO (10%) was used as the positive control, and cell culture media as the negative control. All samples were tested in triplicate.
(§2) The results were plotted in a dose-response curve as shown in Figure S97 and the half-maximum inhibitory concentration (IC50) values were calculated using R. A 4-parameter logistic (4PL) dose-response model was applied to analyse the relationship between the concentration and the observed response (absorbance at 490 nm). […] The model was fitted to the experimental data using the drm function from the drc_3.0-1 package in R and IC50 values were determined as the concentration (μM) corresponding to 50% cell survival.
(In general: Formazan colour is commonly taken as a measure of viable cells.)

For assay [1], the system named is MCF7 (human breast adenocarcinoma). The assay is described as above. The format is cell-based. As to conditions: MCF7 cells. The procedure:
as §1, §2

In assay [2] the test system is MOLM-13 (acute myeloid leukemia). The description is as above. Format: cell-based. To be noted: Homo sapiens, MOLM-13 cells. The method, then: as §1, §2
Assay [3] concerns MRC-5 (normal lung fibroblast). The description is as above. The format is cell-based. As to conditions: Homo sapiens, MRC5, MRC-5 normal lung fibroblasts. The procedure:
as §1, §2

Assay [4] deals with MV-4-11 (biphenotypic B myelomonocytic leukemia). The assay is described as above. Format: cell-based. As to conditions: Homo sapiens, MV4-11, MV-4-11 cells. The procedure:
as §1, §2

The subject of assay [5] is THP-1 (acute monocytic leukemia). Described as above. The format is cell-based. To be noted: Homo sapiens, THP-1 cells. The procedure:
as §1, §2

In assay [6] the test system is erythropoietin gene expression. Further details: method as in PMID 9514014. To be noted: cited from earlier work.
A further assay has as its system insects. Further details: method as in doi:10.1021/np9601216. As to conditions: cited from earlier work.
In assay [7] the test system is PDGF-BB/PDGFR-ββ signalling. Further details: method as in PMID 27322468. To be noted: cited from earlier work.
The test system of a further assay is MCF7. Further details: method as in PMID 30572686. As to conditions: read-out: IC50 MCF7 (previously reported), cited from earlier work.
In assay [8] the test system is HL-60 (acute promyelocytic leukemia). Further details: method as in PMID 30572686. As to conditions: HL-60 cells; read-out: IC50 HL-60 (previously reported); cited from earlier work.
For a further assay, the system named is plants. As to conditions: cited from earlier work.

A word on the IC50: it is the concentration needed to halve the response being measured. Turning to `CCC(C)C1NC(=O)C2CCCN2C(=O)C(CC(O)CCl)OC(=O)CCNC(=O)C(C)N(C)C(=O)C(C(C)CC)N(C)C1=O` (stereo not shown) [Compound 1, destruxin-A4 chlorohydrin] (cyclo([Pentanoyl(2-O,4-OH,5-Cl)]PI[NMeI][NMeA][βAla]); configuration not given here), the IC50 with A2058 (human melanoma) is 1100 nM; in assay [1], 800 nM; in assay [2], 400 nM; in assay [3] it was 2200 nM; in assay [4], 700 nM; in assay [5] it was 2200 nM. Also, the Erythropoietin gene expression entry in assay [6] is reported as “induced erythropoietin gene expression”.

`C=CCC1OC(=O)CCNC(=O)C(C)N(C)C(=O)C(C(C)CC)N(C)C(=O)C(C(C)CC)NC(=O)C2C(C)CCN2C1=O` (stereo not shown) [Compound 3, destruxin-A5]: the IC50 in the assay with A2058 (human melanoma) was 6600 nM; in assay [1] it was 5200 nM; in [2] it was 3000 nM; in assay [3], 15200 nM; in assay [4] it was 7200 nM; in assay [5] it was 8700 nM. Further, the Entomopathogenic activity entry with insects was “entomopathogenic activity”. In addition, in assay [7], the “Inhibition of PDGF-BB/PDGFR-ββ signalling” value is “selectively inhibit”.

Take `CCC(C)C1NC(=O)C2C(C)CCN2C(=O)C(CC(C)C)OC(=O)CCNC(=O)C(C)N(C)C(=O)C(C(C)CC)N(C)C1=O` (stereo not shown) [Compound 5, homodestcardin] (cyclo([X1]I[NMeI][NMeA][βAla][ξLac(3-iPr)]); configuration not given here): the IC50 came to 2600 nM with A2058 (human melanoma); 2100 nM in [1]; 3600 nM in [2]; 5600 nM in [3]; 12500 nM in assay [4]; 16000 nM in assay [5].

For the compound `CCC(C)C1NC(=O)C2C(C)CCN2C(=O)C(CC(O)CCl)OC(=O)CCNC(=O)C(C)N(C)C(=O)C(C(C)CC)N(C)C1=O` (stereo not shown) [Compound 2, trichomide D] (cyclo([X1]I[NMeI][NMeA][βAla][Pentanoyl(2-O,4-OH,5-Cl)]); configuration not given here), the half-inhibitory concentration (IC50) is 40 nM in the assay on A2058 (human melanoma) (value marked * expressed in nM); 40 nM in [1] (value marked * expressed in nM); 500 nM in [2]; 1200 nM in [3]; 800 nM in assay [4]; 2100 nM in assay [5]. Moreover, the IC50 with MCF7 (MCF7 cell line) was 79 nM; in the assay with MCF7 (MCF7 cells) it was 79 nM; in [8], 107 nM.

For the compound `CCC(C)C1NC(=O)C2CCCN2C(=O)C(CC(C)C)OC(=O)CCNC(=O)C(C)N(C)C(=O)C(C(C)CC)N(C)C1=O` (stereo not shown) [Compound 4, homodestruxin B] (cyclo([ξLac(3-iPr)]PI[NMeI][NMeA][βAla]); configuration not given here), the IC50 in the assay on A2058 (human melanoma) is 30200 nM; in [1] it was 12300 nM; in assay [2] it was 5500 nM; in assay [3], > 40000 nM; in assay [4] it was 14600 nM; in [5], 16200 nM. In addition, the Phytotoxic activity result in the assay with plants was “phytotoxic activity”.
